Experimental data: PubChem BioAssay (NCI)
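Results reflect a 48-hour exposure of cells in 96-well plates to compound at five concentrations. TGI: concentration producing complete growth inhibition.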

Columns and labels:
Test in all cases: DTP human tumour cell line panel, 48 h
786-0 renal = test system: 786-0 renal
A498 renal = test system: A498 renal
A549 NSCLC = test system: A549 NSCLC
ACHN renal = test system: ACHN renal
BT-549 breast = test system: BT-549 breast
CAKI-1 renal = test system: CAKI-1 renal
CCRF-CEM leukemia = test system: CCRF-CEM leukemia
COLO 205 colon = test system: COLO 205 colon
DU-145 prostate = test system: DU-145 prostate
EKVX NSCLC = test system: EKVX NSCLC
HCC-2998 colon = test system: HCC-2998 colon
HCT-116 colon = test system: HCT-116 colon
HCT-15 colon = test system: HCT-15 colon
HL-60(TB) leukemia = test system: HL-60(TB) leukemia
HOP-92 NSCLC = test system: HOP-92 NSCLC
HS 578T breast = test system: HS 578T breast
HT29 colon = test system: HT29 colon
IGROV1 ovarian = test system: IGROV1 ovarian
K-562 leukemia = test system: K-562 leukemia
KM12 colon = test system: KM12 colon
LOX IMVI melanoma = test system: LOX IMVI melanoma
M14 melanoma = test system: M14 melanoma
MALME-3M melanoma = test system: MALME-3M melanoma
MCF7 breast = test system: MCF7 breast
MDA-MB-231 breast = test system: MDA-MB-231 breast
MDA-MB-435 = test system: MDA-MB-435
MDA-N = test system: MDA-N
MOLT-4 leukemia = test system: MOLT-4 leukemia
NCI-H226 lung = test system: NCI-H226 lung
NCI-H23 lung = test system: NCI-H23 lung
NCI-H460 lung = test system: NCI-H460 lung
NCI-H522 lung = test system: NCI-H522 lung
NCI/ADR-RES ovarian = test system: NCI/ADR-RES ovarian
OVCAR-4 ovarian = test system: OVCAR-4 ovarian
OVCAR-5 ovarian = test system: OVCAR-5 ovarian
OVCAR-8 ovarian = test system: OVCAR-8 ovarian
PC-3 prostate = test system: PC-3 prostate
RPMI-8226 leukemia = test system: RPMI-8226 leukemia
RXF 393 renal = test system: RXF 393 renal
SF-268 CNS = test system: SF-268 CNS
SF-539 CNS = test system: SF-539 CNS
SK-MEL-2 melanoma = test system: SK-MEL-2 melanoma
SK-MEL-28 melanoma = test system: SK-MEL-28 melanoma
SK-MEL-5 melanoma = test system: SK-MEL-5 melanoma
SN12C renal = test system: SN12C renal
SNB-19 CNS = test system: SNB-19 CNS
SNB-75 CNS = test system: SNB-75 CNS
SR leukemia = test system: SR leukemia
SW-620 colon = test system: SW-620 colon
T-47D breast = test system: T-47D breast
TK-10 renal = test system: TK-10 renal
U251 CNS = test system: U251 CNS
UACC-257 melanoma = test system: UACC-257 melanoma
UACC-62 melanoma = test system: UACC-62 melanoma
UO-31 renal = test system: UO-31 renal
HOP-62 NSCLC = test system: HOP-62 NSCLC
OVCAR-3 ovarian = test system: OVCAR-3 ovarian
SF-295 CNS = test system: SF-295 CNS
SK-OV-3 ovarian = test system: SK-OV-3 ovarian

`O=C1C(Cl)C2(CC(/C=C/c3cccs3)=NN2c2cccc(S(=O)(=O)O)c2)N1c1nc2ccccc2s1` (stereo unspecified) was tested, and the TGI (786-0 renal) was > 100 µM, the TGI (A498 renal) was > 100 µM and the TGI (A549 NSCLC) was > 100 µM. The TGI (ACHN renal) was > 100 µM, the TGI (BT-549 breast) was > 100 µM and the TGI (CAKI-1 renal) was > 100 µM. For the same compound, the TGI (CCRF-CEM leukemia) was 78.2 µM, the TGI (COLO 205 colon) was > 100 µM and the TGI (DU-145 prostate) was > 100 µM. The TGI (EKVX NSCLC) was > 100 µM, the TGI (HCC-2998 colon) was > 100 µM and the TGI (HCT-116 colon) was > 100 µM. The TGI (HCT-15 colon) was > 100 µM, the TGI (HL-60(TB) leukemia) was > 100 µM and the TGI (HOP-92 NSCLC) was > 100 µM. The TGI (HS 578T breast) was > 100 µM, the TGI (HT29 colon) was > 100 µM and the TGI (IGROV1 ovarian) was > 100 µM. For the same compound, the TGI (K-562 leukemia) was > 100 µM, the TGI (KM12 colon) was > 100 µM and the TGI (LOX IMVI melanoma) was > 100 µM. For the same compound, the TGI (M14 melanoma) was > 100 µM, the TGI (MALME-3M melanoma) was > 100 µM and the TGI (MCF7 breast) was > 100 µM. For the same compound, the TGI (MDA-MB-231 breast) was > 100 µM, the TGI (MDA-MB-435) was > 100 µM and the TGI (MDA-N) was > 100 µM. The TGI (MOLT-4 leukemia) was > 100 µM, the TGI (NCI-H226 lung) was > 100 µM and the TGI (NCI-H23 lung) was > 100 µM. The TGI (NCI-H460 lung) was > 100 µM, the TGI (NCI-H522 lung) was 38.5 µM and the TGI (NCI/ADR-RES ovarian) was > 100 µM. For the same compound, the TGI (OVCAR-4 ovarian) was > 100 µM, the TGI (OVCAR-5 ovarian) was > 100 µM and the TGI (OVCAR-8 ovarian) was > 100 µM. The TGI (PC-3 prostate) was > 100 µM, the TGI (RPMI-8226 leukemia) was > 100 µM and the TGI (RXF 393 renal) was > 100 µM. The TGI (SF-268 CNS) was > 100 µM, the TGI (SF-539 CNS) was > 100 µM and the TGI (SK-MEL-2 melanoma) was > 100 µM. The TGI (SK-MEL-28 melanoma) was > 100 µM, the TGI (SK-MEL-5 melanoma) was > 100 µM and the TGI (SN12C renal) was > 100 µM. The TGI (SNB-19 CNS) was > 100 µM, the TGI (SNB-75 CNS) was > 100 µM and the TGI (SR leukemia) was > 100 µM. For the same compound, the TGI (SW-620 colon) was > 100 µM, the TGI (T-47D breast) was > 100 µM and the TGI (TK-10 renal) was > 100 µM. The TGI (U251 CNS) was > 100 µM, the TGI (UACC-257 melanoma) was > 100 µM and the TGI (UACC-62 melanoma) was > 100 µM. It also gave a TGI (UO-31 renal) of 23.8 µM.
For `O=c1oc2ccc(Cl)cc2c2ccccc12`, the TGI (786-0 renal) was > 100 µM, the TGI (A498 renal) was > 100 µM and the TGI (A549 NSCLC) was > 100 µM. For the same compound, the TGI (ACHN renal) was > 100 µM, the TGI (BT-549 breast) was 37 µM and the TGI (CAKI-1 renal) was > 100 µM. The TGI (CCRF-CEM leukemia) was > 100 µM, the TGI (COLO 205 colon) was > 100 µM and the TGI (DU-145 prostate) was > 100 µM. For the same compound, the TGI (EKVX NSCLC) was > 100 µM, the TGI (HCC-2998 colon) was > 100 µM and the TGI (HCT-116 colon) was > 100 µM. The TGI (HCT-15 colon) was > 100 µM, the TGI (HL-60(TB) leukemia) was > 100 µM and the TGI (HOP-62 NSCLC) was 45.1 µM. The TGI (HOP-92 NSCLC) was 93.5 µM, the TGI (HS 578T breast) was 77.2 µM and the TGI (HT29 colon) was > 100 µM. The TGI (IGROV1 ovarian) was > 100 µM, the TGI (K-562 leukemia) was > 100 µM and the TGI (LOX IMVI melanoma) was > 100 µM. For the same compound, the TGI (M14 melanoma) was > 100 µM, the TGI (MALME-3M melanoma) was > 100 µM and the TGI (MCF7 breast) was > 100 µM. The TGI (MDA-MB-231 breast) was 41.2 µM, the TGI (MDA-MB-435) was > 100 µM and the TGI (MDA-N) was > 100 µM. For the same compound, the TGI (MOLT-4 leukemia) was > 100 µM, the TGI (NCI-H226 lung) was > 100 µM and the TGI (NCI-H23 lung) was 58.2 µM. The TGI (NCI-H460 lung) was > 100 µM, the TGI (NCI-H522 lung) was > 100 µM and the TGI (NCI/ADR-RES ovarian) was > 100 µM. For the same compound, the TGI (OVCAR-3 ovarian) was > 100 µM, the TGI (OVCAR-4 ovarian) was > 100 µM and the TGI (OVCAR-5 ovarian) was > 100 µM. For the same compound, the TGI (OVCAR-8 ovarian) was > 100 µM, the TGI (PC-3 prostate) was > 100 µM and the TGI (RPMI-8226 leukemia) was > 100 µM. The TGI (RXF 393 renal) was 58.9 µM, the TGI (SF-268 CNS) was 50.5 µM and the TGI (SF-295 CNS) was > 100 µM. For the same compound, the TGI (SF-539 CNS) was > 100 µM, the TGI (SK-MEL-2 melanoma) was 50.9 µM and the TGI (SK-MEL-28 melanoma) was > 100 µM. The TGI (SK-MEL-5 melanoma) was > 100 µM, the TGI (SN12C renal) was > 100 µM and the TGI (SNB-19 CNS) was 45.1 µM. The TGI (SNB-75 CNS) was 97.4 µM, the TGI (SR leukemia) was > 100 µM and the TGI (SW-620 colon) was > 100 µM. For the same compound, the TGI (T-47D breast) was > 100 µM, the TGI (TK-10 renal) was > 100 µM and the TGI (U251 CNS) was 33.7 µM. For the same compound, the TGI (UACC-257 melanoma) was > 100 µM and the TGI (UACC-62 melanoma) was > 100 µM.
With `C=CCc1cccc2cc(C(=O)NC3CCCCC3)c(=N)oc12` the TGI (786-0 renal) was 31.2 µM, the TGI (A498 renal) was 52 µM and the TGI (A549 NSCLC) was > 100 µM. The TGI (ACHN renal) was 35 µM, the TGI (BT-549 breast) was > 100 µM and the TGI (CAKI-1 renal) was 37.9 µM. The TGI (CCRF-CEM leukemia) was > 100 µM, the TGI (COLO 205 colon) was 33.5 µM and the TGI (DU-145 prostate) was 52.5 µM. The TGI (EKVX NSCLC) was > 100 µM, the TGI (HCC-2998 colon) was 31.2 µM and the TGI (HCT-116 colon) was 28.6 µM. The TGI (HCT-15 colon) was 34.9 µM, the TGI (HL-60(TB) leukemia) was > 100 µM and the TGI (HOP-62 NSCLC) was 37.7 µM. The TGI (HOP-92 NSCLC) was > 100 µM, the TGI (HS 578T breast) was 31.4 µM and the TGI (HT29 colon) was 57.7 µM. For the same compound, the TGI (IGROV1 ovarian) was > 100 µM, the TGI (K-562 leukemia) was > 100 µM and the TGI (KM12 colon) was 33 µM. The TGI (LOX IMVI melanoma) was 34 µM, the TGI (M14 melanoma) was 39.1 µM and the TGI (MALME-3M melanoma) was > 100 µM. For the same compound, the TGI (MCF7 breast) was > 100 µM, the TGI (MDA-MB-231 breast) was 35.9 µM and the TGI (MDA-MB-435) was 77.5 µM. The TGI (MDA-N) was 47.3 µM, the TGI (MOLT-4 leukemia) was > 100 µM and the TGI (NCI-H226 lung) was 44.9 µM. The TGI (NCI-H23 lung) was 51.8 µM, the TGI (NCI-H460 lung) was 35.9 µM and the TGI (NCI-H522 lung) was > 100 µM. For the same compound, the TGI (NCI/ADR-RES ovarian) was > 100 µM, the TGI (OVCAR-3 ovarian) was 28.3 µM and the TGI (OVCAR-4 ovarian) was 63.1 µM. It also gave a TGI (OVCAR-5 ovarian) of 39 µM, a TGI (OVCAR-8 ovarian) of 57.8 µM and a TGI (PC-3 prostate) of 31.2 µM. The TGI (RPMI-8226 leukemia) was > 100 µM, the TGI (RXF 393 renal) was > 100 µM and the TGI (SF-268 CNS) was 41.2 µM. For the same compound, the TGI (SK-MEL-2 melanoma) was 16.1 µM, the TGI (SK-MEL-28 melanoma) was 66.2 µM and the TGI (SK-MEL-5 melanoma) was 27.4 µM. The TGI (SK-OV-3 ovarian) was > 100 µM, the TGI (SN12C renal) was 29.8 µM and the TGI (SNB-19 CNS) was 72.8 µM. The TGI (SNB-75 CNS) was 35 µM, the TGI (SR leukemia) was > 100 µM and the TGI (SW-620 colon) was > 100 µM. For the same compound, the TGI (T-47D breast) was 52.8 µM, the TGI (U251 CNS) was > 100 µM and the TGI (UACC-257 melanoma) was 78 µM. It also gave a TGI (UACC-62 melanoma) of 41.2 µM.
